Here are results for one compound from patent US20260159497A1, “SOLID FORMS OF A COMPLEMENT FACTOR B INHIBITOR” (Novartis Pharma AG, priority 2022, published 2026).

This data set can be described thus: Pharmacokinetic study after oral dosing, rat. The conditions noted are these: for Cmax / AUC(0-t) / concentration at 24 h: male, SD (Sprague-Dawley), rat, in vivo, po, oral, suspension in 0.5% methocel + 0.1% tween 80 in water, SD Rat male, Fed, 5 mL/kg; for AUC(0-t): read-out: AUC0-24 h; for concentration at 24 h: read-out: C24 h. Format: in vivo, SD Rat. On the procedure: The pharmacokinetic profile of (S)-4-(2,2-difluoro-7-((5-methoxy-7-methyl-1H-indol-4-yl)methyl)-7-azaspiro[3.5]nonan-6-yl)benzoic acid was assessed in rats, dogs or non-human primates (NHPs) as the amorphous compound as a solution in 20% kleptose in water and as a suspension of Form A in 0.5% methocel+0.1% tween 80 in water.
Amorphous (S)-4-(2,2-difluoro-7-((5-methoxy-7-methyl-1H-indol-4-yl)methyl)-7-azaspiro[3.5]nonan-6-yl)benzoic acid was weighed into a glass vial with a magnetic stir bar to give formulations at dose concentrations of 0.1-1000 mg/kg. Approx. ⅓ the final volume of 20% kleptose (hydroxypropyl β-cyclodextrin, Aldrich, CAS #128446-35-5) in water was added to the vial (to afford either a 5 mL/kg or 10 mL/kg dose volume, depending on the species). The mixture was basified to a pH of 8.5 to 10 using dropwise addition of 2-5 M aqueous NaOH solution, with pH monitoring. The suspension was stirred, vortexed, and sonicated for 15-20 minutes to afford a homogenous mixture. The second ⅓ of the final volume of 20% kleptose was added to the vial and further stirred, vortexed, and sonicated for 15-20 minutes to afford a homogenous mixture. The pH was monitored and further pH adjustment to pH 8.5 to 10, if necessary, can be applied. The final ⅓ the final volume of 20% kleptose was added to the vial and further stirred, vortexed, and sonicated for 15-20 minutes to afford a homogenous solution. The pH of the solution was adjusted to a pH of 7.5 to 8.0 with dropwise addition of 1.0 M aqueous HCl solution with gentle stirring. The formulation should remain in solution.
Form A crystalline (S)-4-(2,2-difluoro-7-((5-methoxy-7-methyl-1H-indol-4-yl)methyl)-7-azaspiro[3.5]nonan-6-yl)benzoic acid was weighed into a glass vial with a magnetic stir bar to give formulations at dose concentrations of 0.1-1000 mg/kg. The crystalline material should preferably have a particle size with a D50 below 50 μm, and ideally with a D50 below 5 μm. The desired volume of 0.5% methocel (viscosity 400 cP, Aldrich, CAS #9004-67-5)/0.1% tween-80 (Aldrich, CAS #9005-65-6) was added (to afford a 5 mL/kg dose volume). The contents of the vial were stirred at 400-500 rpm on a stir-plate. Gentle vortex or bath sonication can be applied to break down any large clumps. The vial should be mixed well to ensure homogeneity right before animal dosing.

The mark [1] stands for this setting: 30 mg/kg, 30 mg/kg, particle size D50 = 5.1 μm.
Where [2] appears, read: 300 mg/kg, 300 mg/kg, particle size D50 = 5.1 μm.
Where [3] appears, read: 300 mg/kg, 300 mg/kg, particle size D50 = 101 μm.

Like-named read-outs stand apart in the source and are kept apart here.

With `COc1cc(C)c2[nH]ccc2c1CN1CCC2(C[C@H]1c1ccc(C(=O)O)cc1)CC(F)(F)C2` [Form A, (S)-4-(2,2-difluoro-7-((5-methoxy-7-methyl-1H-indol-4-yl)methyl)-7-azaspiro[3.5]nonan-6-yl)benzoic acid], under setting [1], the Cmax was found to be 6.1 µM, the AUC(0-t) stood at 79.2 µM·h and the concentration at 24 h was found to be 1.9 µM. For the same compound, under setting [2], the peak concentration (Cmax) came out at 157 µM, the AUC(0-t) turned out to be 958 µM·h and the concentration at 24 h amounted to 3.3 µM. Under setting [3], the peak concentration (Cmax) worked out at 80 µM, the AUC(0-t) was 547 µM·h and the concentration at 24 h was 2.7 µM. Besides, the “Cmax, AUC0-24 and C24h compared with the amorphous form” value (oral dosing, smaller particle size) is “higher”.
